In patent US6949548B2, “Combination therapy for the treatment of heart failure” (Orion Corporation, priority 2001, dated 2005):

Tested on: heart failure patients
Assay: Effect of the combination on the mortality of heart failure patients
Assay type: in vivo, human
Procedure: Effect of the Combination on the Mortality of Heart Failure Patients
A 6-hour infusion of levosimendan using a bolus of 6, 12 or 24 μg/kg and subsequent infusion of 0.1, 0.2 or 0.4 μg/kg/min was given to heart failure patients with or without concomitant use of a beta-blocker. The 72-hour, 14-day and 180 day mortality was measured. It can be seen that the combination provided synergistic reduction in the mortality of the heart failure patients.

[1] = LS 6 + 0.1 (bolus 6 μg/kg, infusion 0.1 μg/kg/min, 6-hour), did not receive beta-blocker, N = 60
[2] = LS 6 + 0.1 (bolus 6 μg/kg, infusion 0.1 μg/kg/min, 6-hour), received beta-blocker, N = 43
[3] = LS 12 + 0.2 (bolus 12 μg/kg, infusion 0.2 μg/kg/min, 6-hour), did not receive beta-blocker, N = 62
[4] = LS 12 + 0.2 (bolus 12 μg/kg, infusion 0.2 μg/kg/min, 6-hour), received beta-blocker, N = 38
[5] = LS 24 + 0.2 (bolus 24 μg/kg, infusion 0.2 μg/kg/min, 6-hour), did not receive beta-blocker, N = 67
[6] = LS 24 + 0.2 (bolus 24 μg/kg, infusion 0.2 μg/kg/min, 6-hour), received beta-blocker, N = 32
[7] = LS 24 + 0.4 (bolus 24 μg/kg, infusion 0.4 μg/kg/min, 6-hour), did not receive beta-blocker, N = 57
[8] = LS 24 + 0.4 (bolus 24 μg/kg, infusion 0.4 μg/kg/min, 6-hour), received beta-blocker, N = 42

SMILES: CC1CC(=O)NN=C1c1ccc(NN=C(C#N)C#N)cc1 (single isomer, unassigned; (-)) [LS, (−)-enantiomer of [[4-(1,4,5,6-tetrahydro-4-methyl-6-oxo-3-pyridazinyl)phenyl]hydrazono]propanedinitrile]
- 14-day mortality, % [1]: 15.0%
- 72-hour mortality, % [1]: 8.3%
- 180-day mortality, % [1]: 50.0%
- 14-day mortality, % [2]: 9.3%
- 72-hour mortality, % [2]: 2.3%
- 180-day mortality, % [2]: 30.2%
- 14-day mortality, % [3]: 8.1%
- 72-hour mortality, % [3]: 1.6%
- 180-day mortality, % [3]: 40.3%
- 14-day mortality, % [4]: 10.5%
- 72-hour mortality, % [4]: 5.3%
- 180-day mortality, % [4]: 26.3%
- 14-day mortality, % [5]: 14.9%
- 72-hour mortality, % [5]: 7.5%
- 180-day mortality, % [5]: 46.3%
- 14-day mortality, % [6]: 9.4%
- 72-hour mortality, % [6]: 0.0%
- 180-day mortality, % [6]: 37.5%
- 14-day mortality, % [7]: 15.8%
- 72-hour mortality, % [7]: 8.8%
- 180-day mortality, % [7]: 45.6%
- 14-day mortality, % [8]: 4.8%
- 72-hour mortality, % [8]: 0.0%
- 180-day mortality, % [8]: 23.8%
